Columns and labels:
[1] = tested on: Staphylococcus aureus 293; assay: Antibacterial activity in vitro (MIC, agar dilution); type: cell-based; details: resistant strain Staphylococcus aureus 293
Method: (§1) The optically active quinoline carboxylic acid derivatives of the present invention were tested as to whether they could be useful as antibacterial compounds. In this regard, the compounds were measured for minimum inhibitory concentration (MIC: unit μg/ml) according to an agar dilution process (Hoechst 345) in which Muller-Hinton agars were diluted two fold. For comparison, ciprofloxacin and sparfloxacin were used as controls. Corresponding enantiomers and racemates of the compounds of interest were also used as comparative ones. Bacteria were inoculated at an amount of about 10^7 cfu/ml onto each agar. 18 hours after the inoculation at 37° C., the growth of the bacteria was observed. As to methicillin-resistant strains, their growth was observed 48 hours after the inoculation at […]. Hoechst standard strains were used as the test bacteria.

[2] = tested on: Staphylococcus aureus 179; assay: as above; type: cell-based; details: resistant strain Staphylococcus aureus 179
Method: as §1

[3] = tested on: Staphylococcus aureus 121E; assay: as above; type: cell-based; details: resistant strain Staphylococcus aureus 121E
Method: as §1

[4] = tested on: Staphylococcus aureus 241; assay: as above; type: cell-based; details: resistant strain Staphylococcus aureus 241
Method: as §1

[5] = tested on: Staphylococcus aureus 690E; assay: as above; type: cell-based; details: resistant strain Staphylococcus aureus 690E
Method: as §1

[6] = tested on: Staphylococcus aureus 208E; assay: as above; type: cell-based; details: resistant strain Staphylococcus aureus 208E
Method: as §1

[7] = tested on: Staphylococcus aureus 693E; assay: as above; type: cell-based; details: resistant strain Staphylococcus aureus 693E
Method: as §1

[8] = tested on: Staphylococcus aureus 88E; assay: as above; type: cell-based; details: resistant strain Staphylococcus aureus 88E
Method: as §1

[9] = tested on: Staphylococcus aureus 256E; assay: as above; type: cell-based; details: resistant strain Staphylococcus aureus 256E
Method: as §1

[10] = tested on: Staphylococcus epidermidis 329; assay: as above; type: cell-based; details: resistant strain Staphylococcus epidermidis 329
Method: as §1

[11] = tested on: Staphylococcus aureus 303; assay: as above; type: cell-based; details: resistant strain Staphylococcus aureus 303
Method: as §1

[12] = tested on: Staphylococcus aureus 692E; assay: as above; type: cell-based; details: resistant strain Staphylococcus aureus 692E
Method: as §1

[13] = tested on: Staphylococcus epidermidis 319; assay: as above; type: cell-based; details: resistant strain Staphylococcus epidermidis 319
Method: as §1

Phototoxicity test = type: in vivo; details: CD-1 female mice, oral 50 mg/kg; for Thickness of mice's ears after UV exposure, After 24 hr / Thickness of mice's ears after UV exposure, After 48 hr: UVA light source; for Thickness of mice's ears after UV exposure, After 24 hr / Thickness of mice's ears after UV exposure, After 48 hr / Thickness of mice's ears, Before UV exposure: 50 mg/kg; for edema and erythema observed after UV exposure / increase in ear thickness compared with before the UV exposure: after 48 hours of the UV exposure; for Thickness of mice's ears, Before UV exposure: baseline before UVA
Method: It is known that the presence of a halogen atom at the 8-position of the quinolone nuclei causes phototoxicity.
After 16 hours of starvation, CD-1 female mice were orally administered with a dose of 50 mg/kg of the compounds and allowed to be exposed for 4.5 hours to a UVA light source. The mice were located 15 cm away from the light source. Whether the mice were damaged in their ears was adopted as a main factor for the phototoxicity and determined after 24 hour and 48 hour UV exposure. The edema which the mice suffered were examined by measuring the thickness changes of their ears with the aid of electronic calipers and calculating average values. Also, an observation was made as to whether the mice suffered from erythema.

[14] = listed as Racemic mixture of Example 14 compound
[15] = listed as racemate of the compound of Example 14, 50 mg/kg
[16] = listed as enantiomer of the compound of Example 14, 50 mg/kg

Structure (SMILES)	minimum inhibitory concentration (MIC) [1]	minimum inhibitory concentration (MIC) [2]	minimum inhibitory concentration (MIC) [3]	minimum inhibitory concentration (MIC) [4]	minimum inhibitory concentration (MIC) [5]	minimum inhibitory concentration (MIC) [6]	minimum inhibitory concentration (MIC) [7]	minimum inhibitory concentration (MIC) [8]	minimum inhibitory concentration (MIC) [9]	minimum inhibitory concentration (MIC) [10]	minimum inhibitory concentration (MIC) [11]	minimum inhibitory concentration (MIC) [12]	minimum inhibitory concentration (MIC) [13]	also measured
CO/N=C1\CN(c2nc3c(cc2F)c(=O)c(C(=O)O)cn3C2CC2)CC1(C)CN.Cl (racemic) [Racemate of Example 9 Compound]	0.195 µg/mL	0.195 µg/mL	0.007 µg/mL	0.195 µg/mL	0.004 µg/mL	0.007 µg/mL	0.007 µg/mL	0.007 µg/mL	0.007 µg/mL	0.781 µg/mL	0.195 µg/mL	<0.002 µg/mL	0.391 µg/mL	–
CO/N=C1\CN(c2c(F)c(N)c3c(=O)c(C(=O)O)cn(C4CC4)c3c2F)CC1(C)CN.Cl (racemic) [Racemate of Example 14 Compound]	0.025 µg/mL	0.025 µg/mL	<0.002 µg/mL	0.025 µg/mL	<0.002 µg/mL	<0.002 µg/mL	<0.002 µg/mL	<0.002 µg/mL	<0.002 µg/mL	0.098 µg/mL	0.025 µg/mL	<0.002 µg/mL	0.049 µg/mL	Thickness of mice's ears after UV exposure, After 24 hr (Phototoxicity test; [14]): 23.5 ± 1.31; Thickness of mice's ears after UV exposure, After 48 hr (Phototoxicity test; [14]): 24.4 ± 2.33; edema and erythema observed after UV exposure (Phototoxicity test; [15]): moderate edema and erythema; increase in ear thickness compared with before the UV exposure (Phototoxicity test; [15]): 39%; Thickness of mice's ears, Before UV exposure (Phototoxicity test; [14]): 17.6 ± 0.52
CO/N=C1\CN(c2cc3c(cc2F)c(=O)c(C(=O)O)cn3C2CC2)CC1(C)CN.Cl (racemic) [Racemate of Example 19 Compound]	0.391 µg/mL	0.391 µg/mL	0.013 µg/mL	0.391 µg/mL	0.007 µg/mL	0.013 µg/mL	0.013 µg/mL	0.013 µg/mL	0.013 µg/mL	0.781 µg/mL	0.391 µg/mL	0.013 µg/mL	0.781 µg/mL	–
CO/N=C1\CN(c2nc3c(cc2F)c(=O)c(C(=O)O)cn3C2CC2)CC1(C)CN.Cl (single isomer, unassigned) [Enantiomer of Example 9 Compound]	1.563 µg/mL	1.563 µg/mL	0.049 µg/mL	1.563 µg/mL	0.025 µg/mL	0.049 µg/mL	0.025 µg/mL	0.025 µg/mL	0.025 µg/mL	12.500 µg/mL	0.781 µg/mL	0.025 µg/mL	6.250 µg/mL	–
CO/N=C1\CN(c2c(F)c(N)c3c(=O)c(C(=O)O)cn(C4CC4)c3c2F)CC1(C)CN.Cl (single isomer, unassigned) [Enantiomer of Example 14 Compound]	0.195 µg/mL	0.195 µg/mL	0.013 µg/mL	0.195 µg/mL	0.004 µg/mL	0.013 µg/mL	0.004 µg/mL	0.007 µg/mL	0.013 µg/mL	1.563 µg/mL	0.195 µg/mL	0.004 µg/mL	0.781 µg/mL	Thickness of mice's ears after UV exposure, After 24 hr (Phototoxicity test): 36.3 ± 3.01; Thickness of mice's ears after UV exposure, After 48 hr (Phototoxicity test): 44.5 ± 4.0; edema and erythema observed after UV exposure (Phototoxicity test; [16]): serious edema and erythema; increase in ear thickness compared with before the UV exposure (Phototoxicity test; [16]): 150%; Thickness of mice's ears, Before UV exposure (Phototoxicity test): 17.8 ± 0.89
CO/N=C1\CN(c2cc3c(cc2F)c(=O)c(C(=O)O)cn3C2CC2)CC1(C)CN.Cl (single isomer, unassigned) [Enantiomer of Example 19 Compound]	3.125 µg/mL	3.125 µg/mL	0.098 µg/mL	3.125 µg/mL	0.049 µg/mL	0.098 µg/mL	0.098 µg/mL	0.098 µg/mL	0.098 µg/mL	12.500 µg/mL	3.125 µg/mL	0.049 µg/mL	12.500 µg/mL	–
